Values of other authors, collected in patent US20260284157A1, “POWDER COMPOSITION COMPRISING A HAEMOSTATIC AGENT” (WOMED, priority 2023, published 2026).

Details: certificate of analysis of the product (Sigma Aldrich)

Substance: Thrombin
- activity of the protein: > 400 NIH units/mg protein
